In patent publication US20180177845A1, “METHOD FOR TREATMENT OR PREVENTION OF A CANCER” (priority 2016, published 2018):
Where no end group is shown, it is not given here.

Columns and labels:
[1] = system: β4 integrin/FAK complex; experiment: co-immunoprecipitation of β4 integrin and FAK in MDA-MB-231 cells; assay type: cell-based, human
Experimental: (§1) Various plasmid-transfected or pharmacologically treated cells or tissue samples were homogenized and extracted for Western blot analyses. About 10-20 μg whole cell lysate were used for Western blotting. A 1 mg/ml concentration of total protein from cell lysates was employed for immunoprecipitation. Some extracts subjected to immunoprecipitation were incubated with antibodies, as indicated, for 4 h at 4° C., followed by incubation for 4 h or overnight with protein A-Sepharose 4B or protein G-Sepharose beads (Sigma-Aldrich) before proceeding to Western blot analysis. Each experiment was repeated at least three independent times.

[2] = system: FAK phospho-Tyr397; experiment: Western blot of FAK phospho-Tyr397 in MDA-MB-231 cells; assay type: cell-based, human
Experimental: as §1

[3] = system: paxillin/FAK complex; experiment: specificity: paxillin/FAK complex in NIH3T3; assay type: cell-based, mouse; conditions: overexpressed in NIH3T3
Sequence of paxillin/FAK complex (Q8VI36 whole entry): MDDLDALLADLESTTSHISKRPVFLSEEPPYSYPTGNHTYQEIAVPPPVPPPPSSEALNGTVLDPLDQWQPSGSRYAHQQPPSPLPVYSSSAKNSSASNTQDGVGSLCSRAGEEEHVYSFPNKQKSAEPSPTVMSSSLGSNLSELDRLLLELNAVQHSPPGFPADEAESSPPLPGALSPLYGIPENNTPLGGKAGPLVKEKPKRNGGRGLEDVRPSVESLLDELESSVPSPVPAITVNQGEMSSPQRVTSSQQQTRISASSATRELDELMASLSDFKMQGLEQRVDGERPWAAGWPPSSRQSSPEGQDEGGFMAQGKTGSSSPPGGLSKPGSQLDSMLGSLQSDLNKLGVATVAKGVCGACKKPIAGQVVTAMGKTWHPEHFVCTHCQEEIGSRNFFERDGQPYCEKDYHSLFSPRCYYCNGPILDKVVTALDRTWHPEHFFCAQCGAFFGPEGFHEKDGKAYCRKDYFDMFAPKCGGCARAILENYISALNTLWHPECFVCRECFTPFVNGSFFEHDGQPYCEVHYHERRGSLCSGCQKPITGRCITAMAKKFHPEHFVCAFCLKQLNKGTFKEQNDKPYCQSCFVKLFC
Sequence of paxillin/FAK complex (P34152 whole entry, further chain): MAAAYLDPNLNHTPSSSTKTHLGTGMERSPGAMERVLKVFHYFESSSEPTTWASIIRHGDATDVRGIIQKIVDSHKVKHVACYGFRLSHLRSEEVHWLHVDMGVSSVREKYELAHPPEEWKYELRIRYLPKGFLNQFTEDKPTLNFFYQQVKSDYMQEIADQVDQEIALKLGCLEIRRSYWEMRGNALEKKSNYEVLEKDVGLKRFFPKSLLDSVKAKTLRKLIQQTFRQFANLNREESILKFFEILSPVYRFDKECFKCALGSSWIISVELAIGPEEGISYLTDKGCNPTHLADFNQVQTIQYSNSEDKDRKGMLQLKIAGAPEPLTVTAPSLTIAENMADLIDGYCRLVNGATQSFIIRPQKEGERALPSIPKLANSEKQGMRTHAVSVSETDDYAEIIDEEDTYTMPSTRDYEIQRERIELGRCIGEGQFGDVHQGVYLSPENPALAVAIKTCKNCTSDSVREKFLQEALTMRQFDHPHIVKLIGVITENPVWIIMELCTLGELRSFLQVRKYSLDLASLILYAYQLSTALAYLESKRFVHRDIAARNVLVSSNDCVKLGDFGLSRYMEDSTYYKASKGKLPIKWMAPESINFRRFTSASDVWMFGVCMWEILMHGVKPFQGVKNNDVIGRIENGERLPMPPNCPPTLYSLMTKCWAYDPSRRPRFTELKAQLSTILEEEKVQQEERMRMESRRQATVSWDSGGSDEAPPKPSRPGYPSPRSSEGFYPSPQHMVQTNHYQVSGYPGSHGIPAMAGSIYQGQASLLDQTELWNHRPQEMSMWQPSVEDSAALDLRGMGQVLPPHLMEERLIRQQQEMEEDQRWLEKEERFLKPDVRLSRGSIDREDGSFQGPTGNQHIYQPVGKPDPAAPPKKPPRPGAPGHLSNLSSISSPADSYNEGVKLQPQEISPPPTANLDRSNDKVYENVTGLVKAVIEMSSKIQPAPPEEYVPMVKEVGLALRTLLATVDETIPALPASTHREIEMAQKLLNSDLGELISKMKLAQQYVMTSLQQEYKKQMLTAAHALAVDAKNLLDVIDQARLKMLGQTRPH

[4] = system: NIH3T3; experiment: specificity: β1 integrin-mediated cell migration in NIH3T3; assay type: cell-based, mouse; conditions: overexpressed in NIH3T3
[5] = system: MDA-MB-231 cells; experiment: BrdU incorporation cell proliferation assay, MDA-MB-231; assay type: cell-based, human; conditions: MDA-MB-231 transfectants; compared to mock and triple-mutant cells
Experimental: At 24 h after transfection, 2×10^4 cells were serum starved for 24 h. Cells were then washed twice with DMEM and incubated for 16 h in DMEM plus 10% FBS and 100 μM BrdU (Sigma-Aldrich). After that, cells were fixed, permeabilized, heated with DNase I, and processed for immunofluorescence staining, with anti-BrdU (1:200, Sigma-Aldrich) antibody, as described previously^39, with a few modifications. Cells were then counted in multiple fields and scored for BrdU-positive staining in each independent experiment.

[6] = system: MDA-MB-231 cells; experiment: in vivo tumorigenesis, orthotopic injection into mammary fat pad; conditions: stably expressing MDA-MB-231 cells in mammary fat pad of nude mice; 12 weeks
Experimental: (§2) All mouse experiments were approved by the Institutional Animal Care and Use Committee, National Taiwan University (Taipei, Taiwan). All experimental procedures were performed in accordance with the protocols and the ethical regulations approved by the Institutional Animal Care and Use Committees of National Taiwan University (Taipei, Taiwan). Female nu/nu mice were purchased from the National Laboratory Animal Center (Taipei, Taiwan). For tumorigenesis, 1×10^6 MDA-MB-231 stably transfected pools expressing GFP-tagged FAK/25aa, its triple (FAK/25aa^E380A/K381A/Q382A)or double (FAK/25aa^R385A/S386A) mutant, or a mock transfected control that had been selected by 500 μg/ml G418 for 2 weeks were injected into the 3rd mammary fat pad of eight-week-old female nu/nu mice. Stably transfected pools of each construct were injected in 100 μl PBS. Tumor volumes and numbers were measured at 12 weeks after injection and then excised, photographed, and weighted. For tumor metastasis, 1×10^6 MDA-MB-231 cells, described above, that were labeled with luciferase by lentiviral infection were resuspended in 100 μl PBS and injected into the tail vein of six-week-old female nu/nu mice. Lung metastasis was monitored by bioluminescent imaging using an IVIS spectrum imaging system. Lung metastasis was measured on the respective day after injection.

[7] = system: MDA-MB-231 cells; experiment: in vivo lung metastasis after tail vein injection, bioluminescence; design: species or system nude mice; conditions: MDA-MB-231 transfectants, 84 days after injection, vs mock and triple mutant
Experimental: as §2

[8] = system: β4 integrin/FAK complex; experiment: immunoprecipitation of β4 integrin and FAK in HCT-116 cells; assay type: cell-based, human
Experimental: (§3) Cells or tissue samples were homogenized and extracted for Western blotting. For immunoprecipitation, proteins were incubated with antibodies as indicated at 4° C. overnight, followed by incubation for 4 hrs with protein A-Sepharose 4B beads (Sigma-Aldrich). All experiments were conducted at least three independent times.

[9] = system: FAK autophosphorylation at Tyr397; experiment: Western blot of FAK autophosphorylation at Tyr397 in HCT-116 cells; assay type: cell-based, human
Experimental: as §3

[10] = system: HCT-116 cells; experiment: BrdU incorporation assay, HCT-116; assay type: cell-based, human; conditions: HCT-116 cells overexpressing the peptide
Experimental: A BrdU incorporation assay was performed. Briefly, serum-starved cells were incubated in DMEM with 10% FBS and 100 μM BrdU (Sigma-Aldrich) for 16 hrs. Cells were fixed, permeabilized, treated with DNase I, and processed for immunofluorescence staining with anti-BrdU (Sigma-Aldrich) antibody. The BrdU-positive staining cells were scored.

[11] = system: HCT-116 cells; experiment: anchorage-independent growth assay, HCT-116; assay type: cell-based, human
Experimental: An anchorage-independent growth assay was conducted with several modifications. Briefly, 5×10^4 cells were seeded in a 0.3% agar in DMEM containing 10% FBS over the bottom 0.6% agar layer in DIVIEM. After incubation for 14 days, the number and size of colonies were scored.

[12] = system: HCT-116 cells; experiment: in vivo tumorigenicity, subcutaneous xenograft mouse model; conditions: ectopic expression in HCT-116 cells, subcutaneous in SCID mice; 21 days
Experimental: Here. FAK and FRNK transfectants were used as controls. […] All results are presented as the means ±s.d. from at least three independent experiments (*. p<0.05, compared with the corresponding mock control). […] An in vivo tumorigenicity assay was conducted using a xenograft mouse model by subcutaneously injecting cells described above into SCID mice. Mice were sacrificed 21 days after tumor injection. Tumor mass (left, top), protein expression (left, bottom), and tumor weight (right) of the xenografts were measured. Five mice were assessed for each group (Scale bar, 1 cm. *, p<0.05, compared with the corresponding mock control).

[13] = system: β4 integrin at Tyr1526; experiment: Western blot of β4 integrin tyrosine phosphorylation in MDA-MB-231 cells; assay type: cell-based, human; conditions: 10 μM
Experimental: as §1

[14] = system: MDA-MB-231 cells; experiment: anchorage-independent growth in soft agar assay, MDA-MB-231; assay type: cell-based, human; conditions: in comparison with the TAT alone, peptide 10 μM or 50 μM
Experimental: Experiments were performed as previously described'^9, with the following modifications. A total of 5×10^4 cells were seeded in 0.3% agar in DMEM plus 10% […] and EGF (10 ng/ml) over the bottom 0.6% agar layer in DMEM. After incubation for 14 days, the number of colonies was scored.

[15] = target: T1, β4 integrin (human, UniProt P16144 28-1822, limits assumed); experiment: Ni-bead pull-down from MDA-MB-231 lysate, anti-β4 integrin Western blot (FIG. 1(g))
T1 construct: Endogenous full-length β4 integrin in lysates or immunoprecipitates; In cells it is paired with α6 integrin; also called integrin β4; ITGB4
T1 sequence (P16144 28-1822 limits assumed): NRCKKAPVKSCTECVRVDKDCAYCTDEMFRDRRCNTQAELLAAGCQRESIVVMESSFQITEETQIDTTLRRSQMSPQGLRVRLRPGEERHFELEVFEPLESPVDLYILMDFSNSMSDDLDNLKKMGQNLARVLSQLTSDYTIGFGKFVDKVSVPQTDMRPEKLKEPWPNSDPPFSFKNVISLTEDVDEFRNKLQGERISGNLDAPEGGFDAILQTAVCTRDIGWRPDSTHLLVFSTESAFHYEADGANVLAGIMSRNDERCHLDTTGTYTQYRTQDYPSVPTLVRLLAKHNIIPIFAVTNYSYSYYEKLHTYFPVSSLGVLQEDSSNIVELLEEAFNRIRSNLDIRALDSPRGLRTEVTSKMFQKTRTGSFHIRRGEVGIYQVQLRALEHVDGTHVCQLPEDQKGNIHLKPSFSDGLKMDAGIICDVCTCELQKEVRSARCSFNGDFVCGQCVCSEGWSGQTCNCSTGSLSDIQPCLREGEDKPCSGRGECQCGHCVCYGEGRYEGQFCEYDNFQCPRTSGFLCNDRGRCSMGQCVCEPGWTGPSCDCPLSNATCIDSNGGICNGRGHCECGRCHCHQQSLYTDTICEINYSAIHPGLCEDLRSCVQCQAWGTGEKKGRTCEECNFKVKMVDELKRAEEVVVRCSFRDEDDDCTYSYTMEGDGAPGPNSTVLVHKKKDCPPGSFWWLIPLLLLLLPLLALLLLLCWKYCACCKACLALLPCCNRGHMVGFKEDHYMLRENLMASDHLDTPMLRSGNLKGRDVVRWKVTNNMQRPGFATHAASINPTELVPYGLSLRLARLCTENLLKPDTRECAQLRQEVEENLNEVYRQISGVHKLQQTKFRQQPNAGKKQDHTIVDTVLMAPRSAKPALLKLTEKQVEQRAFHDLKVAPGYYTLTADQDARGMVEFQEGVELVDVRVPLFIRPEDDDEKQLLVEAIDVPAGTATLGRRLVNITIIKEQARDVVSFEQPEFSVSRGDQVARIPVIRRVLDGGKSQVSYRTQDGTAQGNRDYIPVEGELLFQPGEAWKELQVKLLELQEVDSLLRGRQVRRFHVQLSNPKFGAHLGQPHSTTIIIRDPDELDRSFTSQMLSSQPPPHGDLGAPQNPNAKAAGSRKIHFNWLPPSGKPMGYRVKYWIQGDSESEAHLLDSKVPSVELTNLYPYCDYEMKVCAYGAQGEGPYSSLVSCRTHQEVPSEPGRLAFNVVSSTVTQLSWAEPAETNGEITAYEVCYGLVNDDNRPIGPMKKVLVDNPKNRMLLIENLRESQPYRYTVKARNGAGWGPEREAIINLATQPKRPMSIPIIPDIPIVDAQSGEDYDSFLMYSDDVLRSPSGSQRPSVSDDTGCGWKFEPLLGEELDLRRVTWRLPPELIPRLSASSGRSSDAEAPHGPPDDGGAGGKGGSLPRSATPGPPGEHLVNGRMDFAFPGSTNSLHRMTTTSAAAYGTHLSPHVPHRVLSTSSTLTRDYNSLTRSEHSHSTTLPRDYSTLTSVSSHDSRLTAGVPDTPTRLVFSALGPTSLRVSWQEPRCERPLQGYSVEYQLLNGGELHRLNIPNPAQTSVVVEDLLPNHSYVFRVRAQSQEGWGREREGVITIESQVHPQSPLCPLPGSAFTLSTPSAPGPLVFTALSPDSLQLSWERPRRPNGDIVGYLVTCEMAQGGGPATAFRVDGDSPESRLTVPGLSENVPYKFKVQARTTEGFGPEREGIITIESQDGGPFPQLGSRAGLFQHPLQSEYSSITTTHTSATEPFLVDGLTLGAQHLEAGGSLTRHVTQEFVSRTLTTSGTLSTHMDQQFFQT

[16] = target: T1, β4 integrin; experiment: GST pull-down from HCT-116 lysate, anti-β4 integrin Western blot (FIG. 9(C))
[17] = target: T1, β4 integrin; experiment: overexpression in HCT-116 cells
[18] = target: T2, focal adhesion kinase (FAK) (human, UniProt Q05397 2-1052); experiment: HA-tagged β4 fragments in HEK-293 cells (FIG. 9F)
T2 construct: Endogenous FAK in lysates of human cells and tissues; also called full-length FAK; FAX [sic]
T2 sequence (Q05397 2-1052 limits assumed): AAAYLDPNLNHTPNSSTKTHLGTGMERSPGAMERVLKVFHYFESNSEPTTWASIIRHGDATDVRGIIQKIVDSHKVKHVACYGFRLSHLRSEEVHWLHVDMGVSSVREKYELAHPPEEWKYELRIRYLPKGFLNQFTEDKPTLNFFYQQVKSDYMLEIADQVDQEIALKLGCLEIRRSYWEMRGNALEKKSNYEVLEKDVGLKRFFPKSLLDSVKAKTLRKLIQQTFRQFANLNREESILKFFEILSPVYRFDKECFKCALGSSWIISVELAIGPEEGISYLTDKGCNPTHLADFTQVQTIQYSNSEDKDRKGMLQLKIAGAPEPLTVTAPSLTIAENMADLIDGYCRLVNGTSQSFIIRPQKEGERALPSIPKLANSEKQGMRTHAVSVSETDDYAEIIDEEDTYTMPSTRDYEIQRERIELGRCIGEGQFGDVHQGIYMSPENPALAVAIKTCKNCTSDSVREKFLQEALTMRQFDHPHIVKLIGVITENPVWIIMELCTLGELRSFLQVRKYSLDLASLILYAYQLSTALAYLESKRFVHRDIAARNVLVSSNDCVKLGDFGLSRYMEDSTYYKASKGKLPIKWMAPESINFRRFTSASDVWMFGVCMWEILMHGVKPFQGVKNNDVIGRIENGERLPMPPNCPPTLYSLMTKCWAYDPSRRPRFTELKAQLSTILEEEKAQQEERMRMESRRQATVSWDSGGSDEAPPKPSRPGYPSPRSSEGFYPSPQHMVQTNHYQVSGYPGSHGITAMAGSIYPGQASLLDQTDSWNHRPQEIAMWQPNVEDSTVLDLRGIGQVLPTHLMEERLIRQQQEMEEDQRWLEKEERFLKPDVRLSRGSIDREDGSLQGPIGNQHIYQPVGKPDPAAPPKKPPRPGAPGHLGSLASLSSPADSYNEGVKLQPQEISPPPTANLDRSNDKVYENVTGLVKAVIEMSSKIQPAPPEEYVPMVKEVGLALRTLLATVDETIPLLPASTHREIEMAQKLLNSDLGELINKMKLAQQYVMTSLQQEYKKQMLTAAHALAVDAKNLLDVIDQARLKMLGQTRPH

## FAK/25aa: the 376th to 400th amino acids of FAK, SEQ ID NO: 3; overexpressed GFP-tagged in cells (LANNEKQGVRSHTVSVSETDDYAEI; also: GFP tag)
[1]; MDA-MB-231 cells, increased expression of the peptide
  level of FAK co-immunoprecipitated by β4 integrin: attenuated in a dose-dependent manner
[2]; transfected MDA-MB-231 cells, in comparison to mock or triple-mutant transfectants
  FAK phospho-Tyr397: decreased
[3]
  paxillin/FAK complex: not affected
[4]
  β1 integrin-mediated cell migration: not affected
[5]
  cell proliferation: decreased
[6]
  size and weight of tumors: significant reductions
[7]
  lung metastatic nodules: less-developed
[8]; overexpressed motif
  interaction between β4 integrin and FAK: ablated
[9]; transfected HCT-116 cells
  Tyr397-autophosphorylation of FAK: diminished
[10]
  cell proliferation: impaired
[11]; HCT-116 transfectants, compared with mock and triple-mutant cells
  anchorage-independent growth: considerably decreased
[12]
  volume and weight of implanted colon cancer tumors: significantly reduced

## CC(C)(C)n1nc(-c2ccc(Cl)cc2)c2c(N)ncnc21 [PP2]
[1]; MDA-MB-231 cells, 10 μM, compared to PP3- or DMSO-treated cells
  formation of the β4 integrin/FAK complex: markedly reduced
[1]; serum-starved MDA-MB-231 cells, EGF 10 ng/ml, inhibitor 10 μM
  interaction between β4 integrin and FAK under EGF stimulation: remained absent
[2]; MDA-MB-231 cells, 10 μM
  phosphorylation level of FAK at Tyr397: reduced
[13]
  phosphorylation level of β4 integrin at Tyr1526: reduced
[8]; EGF stimulation
  β4 integrin and FAK association in response to EGF stimulation: ablated
[8]; blockade of Src activity
  β4 integrin/FAK complex formation: decrease
[9]; HCT-116 cells, EGF stimulation
  FAK activation in response to EGF stimulation: ablated
[9]; HCT-116 cells, blockade of Src activity
  FAK activation: alleviate

## TAT-FAK/25aa: synthesized peptide, FAK/25aa fused with the TAT peptide; sequence GRKKRRQRRRPQLANNEKQGVRSHTVSVSETDDYAE1 (GRKKRRQRRRPQLANNEKQGVRSHTVSVSETDDYAEI)
[1]; MDA-MB-231 cells, extracellular administration of peptide (10 μM)
  formation of the β4 integrin/FAK complex: capable of alleviating
[14]
  foci less formed in soft agar: approximately 30%

## CS(=O)(=O)c1cccc(CNc2nc(Nc3ccc4c(c3)CCC(=O)N4)ncc2C(F)(F)F)c1 [PF-573,228, reference compound]
[8]; FAK activity inhibited, 10 μM
  β4 integrin/FAK complex formation: still formed
[11]; HCT-116 cells treated with FAK inhibitor, DMSO control
  anchorage-independent growth (soft agar): impairs

B1: His-tagged FAK/N375 (other)
chain: MAAAYLDPNLNHTPSSSAKTHLGTGMERSPGAMERVLKVFHYFENSSEPTTWASIIRHGDATDVRGIIQKIVDCHKVKNVACYGLRLSHLQSEEVHWLHLDMGVSNVREKFELAHPPEEWKYELRIRYLPKGFLNQFTEDKPTLNFFYQQVKNDYMLEIADQVDQEIALKLGCLEIRRSYGEMRGNALEKKSNYEVLEKDVGLRRFFPKSLLDSVKAKTLRKLIQQTFRQFANLNREESILKFFEILSPVYRFDKECFKCALGSSWIISVELAIGPEEGISYLTDKGANPTHLADFNQVQTIQYSNSEDKDRKGMLQLKIAGAPEPLTVTAPSLTIAENMADLIDGYCRLVNGATQSFIIRPQKEGERALPSIPK
notes: Recombinant protein from E. coli; not shown: His tag
[15]
  binding result: no binding

B2: GST-FAK/N375 (other)
chain: MAAAYLDPNLNHTPSSSAKTHLGTGMERSPGAMERVLKVFHYFENSSEPTTWASIIRHGDATDVRGIIQKIVDCHKVKNVACYGLRLSHLQSEEVHWLHLDMGVSNVREKFELAHPPEEWKYELRIRYLPKGFLNQFTEDKPTLNFFYQQVKNDYMLEIADQVDQEIALKLGCLEIRRSYGEMRGNALEKKSNYEVLEKDVGLRRFFPKSLLDSVKAKTLRKLIQQTFRQFANLNREESILKFFEILSPVYRFDKECFKCALGSSWIISVELAIGPEEGISYLTDKGANPTHLADFNQVQTIQYSNSEDKDRKGMLQLKIAGAPEPLTVTAPSLTIAENMADLIDGYCRLVNGATQSFIIRPQKEGERALPSIPK
notes: Recombinant protein from E. coli; not shown: GST of the pGEX-2T vector
[16]
  binding result: no binding

B3: GFP-tagged FAK/25aa^R385A/S386A (peptide)
chain: LANNEKQGVAAHTVSVSETDDYAEI
modifications: also: GFP tag
notes: Positions are printed in full-length FAK numbering; also called double mutant of FAK/25aa; not shown: GFP of the pEGFP vector
[17]
  binding result: binds

B4: β4-CalX (other, UniProt P16144 979-1084, looked up)
chain: VNITIIKEQARDVVSFEQPEFSVSRGDQVARIPVIRRVLDGGKSQVSYRTQDGTAQGNRDYIPVEGELLFQPGEAWKELQVKLLELQEVDSLLRGRQVRRFHVQLS
notes: domain: Na+/Ca2+ exchanger homologous motif (CalX); also called β4 Na+/Ca2+ exchanger homologous motif; HA-tagged β4-CalX; not shown: HA tag of the pKH3 vector
[18]
  binding result: no binding
